Source: ChEMBL document CHEMBL4813957, “Antitubercular properties of thiazolidin-4-ones - A review” (Eur J Med Chem, 2021)
Values after ≈ are worked out from the molar mass of the structure shown.

test system: Mycobacterium tuberculosis; test: Antimycobacterial activity against Mycobacterium tuberculosis H37Rv measured after 14 days by test tube dilution technique; format: functional; conditions: 336 h, time 14 day

Row | Compound | MIC [mg/L]
1 | O=C(COc1cnccn1)N/N=C1/SCC(=O)N1c1ccc(Cl)cc1Cl | > 100
2 | O=C(COc1cnccn1)N/N=C1/SCC(=O)N1c1ccc(Cl)cc1[N+](=O)[O-] | 85 (≈ 201 µM)
3 | CCOc1ccc(N2C(=O)CS/C2=N/NC(=O)COc2cnccn2)cc1 | > 100
4 | O=C(COc1cnccn1)N/N=C1/SCC(=O)N1c1ccc(Cl)cc1 | > 100
5 | CCCCN1C(=O)CS/C1=N/NC(=O)COc1cnccn1 | > 100
6 | CC(C)(C)N1C(=O)CS/C1=N/NC(=O)COc1cnccn1 | > 100
7 | CC(C)N1C(=O)CS/C1=N/NC(=O)COc1cnccn1 | > 100

test system: Mycobacterium tuberculosis; test: Antimycobacterial activity against Mycobacterium tuberculosis H37Rv ATCC27294 incubated for 7 days by microplate alamar blue assay; format: functional; conditions: H37Rv ATCC 27294, 168 h, time 7 day

Row | Compound | MIC [mg/L]
8 | COc1cccc(C2SCC(=O)N2NC(=O)c2cc(O)c(O)c(O)c2)c1O (stereo unspecified) | 0.79 (≈ 2.01 µM)
9 | O=C(NN1C(=O)CSC1c1ccccc1O)c1cc(O)c(O)c(O)c1 (stereo unspecified) | 0.79 (≈ 2.18 µM)
10 | O=C(NN1C(=O)CSC1c1ccccc1Cl)c1cc(O)c(O)c(O)c1 (stereo unspecified) | 0.79 (≈ 2.07 µM)
11 | O=C(NN1C(=O)CSC1c1cccc(O)c1)c1cc(O)c(O)c(O)c1 (stereo unspecified) | 0.79 (≈ 2.18 µM)
12 | O=C(NN1C(=O)CSC1c1ccc(O)cc1)c1cc(O)c(O)c(O)c1 (stereo unspecified) | 0.79 (≈ 2.18 µM)
13 | O=C(NN1C(=O)CSC1c1ccccc1)c1cc(O)c(O)c(O)c1 (stereo unspecified) | 0.79 (≈ 2.28 µM)

test system: Mycobacterium tuberculosis; test: Antimycobacterial activity against Mycobacterium tuberculosis H37Rv assessed as bacterial inhibition at 25 ug/ml by microplate alamar blue assay relative to control; format: functional; conditions: not given

Row | Compound | inhibition at 25 µg/mL [%]
14 | CCCCCCCCCCCCN1C(=O)C(CC(=O)O)SC12CCN(C(=O)C(N)C(C)CC)CC2 (stereo unspecified) | 97
15 | CCCCCCCCN1C(=O)CSC12CCCCC2 | 96
16 | CCCCCCCCCCCCN1C(=O)C(CC(=O)O)SC12CCN(C(=O)C(N)CCCCN)CC2 (stereo unspecified) | 96
17 | CCCCCCCCCCCCN1C(=O)C(CC(=O)O)SC12CCCCCCCC2 (stereo unspecified) | 96
18 | CCCCCCCCCCCCN1C(=O)C(CC(=O)O)SC12CCN(C(=O)OC(C)(C)C)CC2 (stereo unspecified) | 96
19 | CCCCCCCCCCCCN1C(=O)C(CC(=O)O)SC12CCCC2 (stereo unspecified) | 97
20 | CCCCCCCCCCCCN1C(=O)C(CC(=O)O)SC12CCC(C(C)(C)C)CC2 (stereo unspecified) | 96
21 | CCCCCCCCCCCCN1C(=O)C(CC(=O)O)SC12CCCCCC2 (stereo unspecified) | 96
22 | CCCCCCCCCCCCN1C(=O)C(CC(=O)O)SC12CCCCC2 (stereo unspecified) | 97

test system: Mycobacterium tuberculosis; test: Antimycobacterial activity against Mycobacterium tuberculosis H37Rv incubated for 5 days by microplate alamar blue assay; format: functional; conditions: 120 h, time 5 day

Row | Compound | MIC [mg/L]
23 | O=C(O)c1cn(C2CC2)c2cc(N3CCNCC3)c(F)cc2c1=O [CIPROFLOXACIN] | 3.12 (≈ 9.42 µM)

test system: Mycobacterium tuberculosis; test: Antimycobacterial activity against Mycobacterium tuberculosis H37Ra 7131 incubated for 21 days by broth dilution method; format: functional; conditions: H37Ra 7131, 504 h, time 21 day

Row | Compound | MIC [mg/L]
24 | C=CC/N=C1\SC(=O)C(=O)N1NC(=O)c1ccncc1 | 19.5 (≈ 67.2 µM)
25 | CC/N=C1\SC(=O)C(=O)N1NC(=O)c1ccncc1 | 19.5 (≈ 70.1 µM)
26 | N=C1S/C(=C\c2ccccc2)C(=O)N1NC(=O)c1ccncc1 | 12 (≈ 37 µM)
27 | Cc1cccc(/N=C2\SC(=O)C(=O)N2NC(=O)c2ccncc2)c1 | 19.5 (≈ 57.3 µM)
28 | N=C1SC(Br)(C(Br)c2ccc([N+](=O)[O-])cc2)C(=O)N1NC(=O)c1ccncc1 (stereo unspecified) | 11 (≈ 20.8 µM)
29 | Cc1ccc(/N=C2\SC(=O)C(=O)N2NC(=O)c2ccncc2)cc1 | 78 (≈ 229 µM)
30 | Cc1ccc(/C=C2\SC(=N)N(NC(=O)c3ccncc3)C2=O)cc1 | 13 (≈ 38.4 µM)
31 | N=C1SC(Br)(C(Br)c2ccccc2)C(=O)N1NC(=O)c1ccncc1 (stereo unspecified) | 13 (≈ 26.8 µM)

test system: Mycobacterium tuberculosis; test: Antimycobacterial activity against Mycobacterium tuberculosis H37Ra ATCC 25177 incubated for 7 days by microplate alamar blue assay; format: functional; conditions: H37Ra ATCC 25177, 168 h, time 7 day

Row | Compound | MIC [mg/L]
32 | COc1cc(/C=N/NC(=S)Nc2cccc(Cl)c2)ccc1OC(=O)/C=C1\SC(=O)NC1=O | 2 (≈ 4.07 µM)

test system: Mycobacterium tuberculosis; test: Antimycobacterial activity against Mycobacterium tuberculosis H37Rv by Lowenstein-Jensen method relative to control; format: functional; conditions: not given

Row | Compound | MIC [mg/L]
33 | O=C(NCCCNc1ncc([N+](=O)[O-])s1)N1C(=O)/C(=C/c2ccccc2)SC1c1ccccc1 (stereo unspecified) | 12.5 (≈ 25.2 µM)
34 | O=C(NCCCNc1ncc([N+](=O)[O-])s1)N1C(=O)/C(=C/c2cccc(Cl)c2)SC1c1cccc(Cl)c1 (stereo unspecified) | 2.75 (≈ 4.87 µM)
35 | O=C(NCCCNc1ncc([N+](=O)[O-])s1)N1C(=O)/C(=C/c2cccc([N+](=O)[O-])c2)SC1c1cccc([N+](=O)[O-])c1 (stereo unspecified) | 2.5 (≈ 4.27 µM)
36 | O=C(NCCCNc1ncc([N+](=O)[O-])s1)N1C(=O)/C(=C/c2ccccc2Cl)SC1c1ccccc1Cl (stereo unspecified) | 2.5 (≈ 4.43 µM)
37 | O=C(NCCCNc1ncc([N+](=O)[O-])s1)N1C(=O)/C(=C/c2ccccc2[N+](=O)[O-])SC1c1ccccc1[N+](=O)[O-] (stereo unspecified) | 2.75 (≈ 4.7 µM)
38 | O=C(NCCCNc1ncc([N+](=O)[O-])s1)N1C(=O)/C(=C/c2ccc(Br)cc2)SC1c1ccc(Br)cc1 (stereo unspecified) | 2.75 (≈ 4.21 µM)
39 | O=C(NCCCNc1ncc([N+](=O)[O-])s1)N1C(=O)/C(=C/c2ccccc2Br)SC1c1ccccc1Br (stereo unspecified) | 6.25 (≈ 9.57 µM)
40 | O=C(NCCCNc1ncc([N+](=O)[O-])s1)N1C(=O)/C(=C/c2ccc(Cl)cc2)SC1c1ccc(Cl)cc1 (stereo unspecified) | 2.5 (≈ 4.43 µM)
41 | O=C(NCCCNc1ncc([N+](=O)[O-])s1)N1C(=O)/C(=C/c2cccc(Br)c2)SC1c1cccc(Br)c1 (stereo unspecified) | 2.75 (≈ 4.21 µM)
42 | O=C(NCCCNc1ncc([N+](=O)[O-])s1)N1C(=O)/C(=C/c2ccc([N+](=O)[O-])cc2)SC1c1ccc([N+](=O)[O-])cc1 (stereo unspecified) | 2.5 (≈ 4.27 µM)

test system: Mycobacterium tuberculosis; test: Antimycobacterial activity against Mycobacterium tuberculosis H37Rv by microplate alamar blue assay; format: functional; conditions: not given

Row | Compound | MIC [mg/L]
43 | O=C(O)c1cn(C2CC2)c2cc(N3CCNCC3)c(F)cc2c1=O [CIPROFLOXACIN] | 3.12 (≈ 9.42 µM)

test system: Mycobacterium tuberculosis; test: Antimycobacterial activity against Mycobacterium tuberculosis H37Rv; format: functional; conditions: not given

Row | Compound | MIC [mg/L]
44 | COc1cc(-c2cc(-c3ccc(Cl)cc3)nc(NC(=O)NN3C(=O)CSC3c3ccccc3[N+](=O)[O-])n2)cc(OC)c1OC (stereo unspecified) | 100 (≈ 157 µM)
45 | COc1ccc(C2SCC(=O)N2NC(=O)Nc2nc(-c3ccc(Cl)cc3)cc(-c3cc(OC)c(OC)c(OC)c3)n2)cc1 (stereo unspecified) | 100 (≈ 161 µM)

test system: Mycobacterium tuberculosis; test: Antimycobacterial activity against Mycobacterium tuberculosis H37Rv incubated for 7 days by microplate alamar blue assay; format: functional; conditions: 168 h, time 7 day

Row | Compound | MIC [mg/L]
46 | COc1ccc(C2SCC(=O)N2c2n[nH]c(=S)s2)cc1 (stereo unspecified) | 6.25 (≈ 19.2 µM)
47 | Cc1ccc(C2SCC(=O)N2c2n[nH]c(=S)s2)cc1 (stereo unspecified) | 12.5 (≈ 40.4 µM)
48 | O=C1CSC(c2ccc(O)cc2)N1c1nnc(S)s1 (stereo unspecified) | 12.5 (≈ 40.1 µM)
49 | COc1ccc(C2SCC(=O)N2c2nnc(S)s2)cc1OC (stereo unspecified) | 1.6 (≈ 4.5 µM)
50 | O=C(O)c1cn(C2CC2)c2cc(N3CCNCC3)c(F)cc2c1=O [CIPROFLOXACIN] | 3.12 (≈ 9.42 µM)

test system: Mycobacterium tuberculosis; test: Antimycobacterial activity against Mycobacterium tuberculosis H37Rv measured after 21 days by test tube dilution technique; format: functional; conditions: 504 h, time 21 day

Row | Compound | MIC [mg/L]
51 | O=C(COc1cnccn1)N/N=C1/SCC(=O)N1c1ccc(Cl)cc1Cl | > 100
52 | O=C(COc1cnccn1)N/N=C1/SCC(=O)N1c1ccc(Cl)cc1[N+](=O)[O-] | 89 (≈ 210 µM)
53 | CCOc1ccc(N2C(=O)CS/C2=N/NC(=O)COc2cnccn2)cc1 | > 100
54 | O=C(COc1cnccn1)N/N=C1/SCC(=O)N1c1ccc(Cl)cc1 | > 100
55 | CCCCN1C(=O)CS/C1=N/NC(=O)COc1cnccn1 | > 100
56 | CC(C)(C)N1C(=O)CS/C1=N/NC(=O)COc1cnccn1 | > 100
57 | CC(C)N1C(=O)CS/C1=N/NC(=O)COc1cnccn1 | > 100

test system: Mycobacterium tuberculosis; test: Antimycobacterial activity against Mycobacterium tuberculosis H37Rv ATCC 27294 incubated for 5 days by microplate alamar blue assay; format: functional; conditions: H37Rv ATCC 27294, 120 h, time 5 day

Row | Compound | MIC [mg/L]
58 | O=C(NN1C(=O)CSC1c1ccco1)c1ccncc1 (stereo unspecified) | 1.25 (≈ 4.32 µM)
59 | COc1cc(C2SCC(=O)N2NC(=O)c2ccncc2)ccc1O (stereo unspecified) | 0.31 (≈ 0.898 µM)
60 | COc1ccc(C2SCC(=O)N2NC(=O)c2ccncc2)cc1 (stereo unspecified) | 1.25 (≈ 3.79 µM)
61 | CN(C)c1ccc(C2SCC(=O)N2NC(=O)c2ccncc2)cc1 (stereo unspecified) | 5 (≈ 14.6 µM)
62 | O=C(NN1C(=O)CSC1c1ccc([N+](=O)[O-])cc1)c1ccncc1 (stereo unspecified) | 3.12 (≈ 9.06 µM)
63 | O=C(NN1C(=O)CSC1c1ccccc1O)c1ccncc1 (stereo unspecified) | 0.62 (≈ 1.97 µM)

test system: Mycobacterium tuberculosis; test: Antimycobacterial activity against Mycobacterium tuberculosis H37Ra; format: functional; conditions: not given

Row | Compound | MIC [mg/L]
64 | CCOC(=O)C(C(C)C)N1C(=O)C(C)SC1c1ccc2c(c1)c1ccccc1n2CC (stereo unspecified) | 25 (≈ 57 µM)
65 | CCOC(=O)C(C(C)C)N1C(=O)C(C)SC1c1cccc(OC)c1O (stereo unspecified) | 25 (≈ 68 µM)
66 | O=C1NC(=S)S/C1=C\c1ccccc1O | 95 (≈ 400 µM)
67 | O=C1NC(=S)S/C1=C\c1c(O)ccc2ccccc12 | 95 (≈ 331 µM)
68 | Cc1ccccc1/N=N/c1ccc(/C=C2\SC(=S)NC2=O)c(O)c1 | 95 (≈ 267 µM)
69 | Cc1ccc(/N=N/c2ccc(/C=C3\SC(=S)NC3=O)c(O)c2)cc1 | 95 (≈ 267 µM)
70 | COc1ccc(/N=N/c2ccc(/C=C3\SC(=S)NC3=O)c(O)c2)cc1 | 95 (≈ 256 µM)
71 | O=C1NC(=S)S/C1=C\c1ccc(/N=N/c2ccccc2)cc1O | 95 (≈ 278 µM)
